# ± gives the expanded uncertainty stated by the source.
# Test: mn = molality of the nth substance listed, in mol/kg
# Conditions: 100 kPa, Liquid, Falling or rolling sphere viscometry
smiles,measurement,setting,value
O=P([O-])([O-])O.[Na+].[Na+] [disodium hydrogen phosphate] + O,viscosity,"288.15 K, m1 = 0.01669",1.056 ± 0.21 mPa·s
same,viscosity,"288.15 K, m1 = 0.03487",1.069 ± 0.21 mPa·s
same,viscosity,"288.15 K, m1 = 0.05412",1.084 ± 0.22 mPa·s
same,viscosity,"288.15 K, m1 = 0.06194",1.089 ± 0.22 mPa·s
same,viscosity,"288.15 K, m1 = 0.08565",1.107 ± 0.22 mPa·s
same,viscosity,"288.15 K, m1 = 0.162",1.164 ± 0.23 mPa·s
same,viscosity,"288.15 K, m1 = 0.255",1.234 ± 0.25 mPa·s
same,viscosity,"288.15 K, m1 = 0.3161",1.28 ± 0.26 mPa·s
same,viscosity,"288.15 K, m1 = 0.4813",1.404 ± 0.28 mPa·s
same,viscosity,"288.15 K, m1 = 0.6261",1.513 ± 0.3 mPa·s
same,viscosity,"288.15 K, m1 = 0.7501",1.606 ± 0.32 mPa·s
same,viscosity,"288.15 K, m1 = 0.8501",1.681 ± 0.34 mPa·s
same,viscosity,"288.15 K, m1 = 0.959",1.762 ± 0.35 mPa·s
same,viscosity,"293.15 K, m1 = 0.01669",0.9429 ± 0.19 mPa·s
same,viscosity,"293.15 K, m1 = 0.03487",0.9556 ± 0.19 mPa·s
same,viscosity,"293.15 K, m1 = 0.05412",0.969 ± 0.19 mPa·s
same,viscosity,"293.15 K, m1 = 0.06194",0.9745 ± 0.2 mPa·s
same,viscosity,"293.15 K, m1 = 0.08565",0.9911 ± 0.2 mPa·s
same,viscosity,"293.15 K, m1 = 0.162",1.044 ± 0.21 mPa·s
same,viscosity,"293.15 K, m1 = 0.255",1.109 ± 0.22 mPa·s
same,viscosity,"293.15 K, m1 = 0.3161",1.152 ± 0.23 mPa·s
same,viscosity,"293.15 K, m1 = 0.4813",1.268 ± 0.25 mPa·s
same,viscosity,"293.15 K, m1 = 0.6261",1.369 ± 0.27 mPa·s
same,viscosity,"293.15 K, m1 = 0.7501",1.456 ± 0.29 mPa·s
same,viscosity,"293.15 K, m1 = 0.8501",1.525 ± 0.31 mPa·s
same,viscosity,"293.15 K, m1 = 0.959",1.602 ± 0.32 mPa·s
same,viscosity,"298.15 K, m1 = 0.01669",0.8421 ± 0.17 mPa·s
same,viscosity,"298.15 K, m1 = 0.03487",0.8532 ± 0.17 mPa·s
same,viscosity,"298.15 K, m1 = 0.05412",0.865 ± 0.17 mPa·s
same,viscosity,"298.15 K, m1 = 0.06194",0.8698 ± 0.17 mPa·s
same,viscosity,"298.15 K, m1 = 0.08565",0.8843 ± 0.18 mPa·s
same,viscosity,"298.15 K, m1 = 0.162",0.931 ± 0.19 mPa·s
same,viscosity,"298.15 K, m1 = 0.255",0.9879 ± 0.2 mPa·s
same,viscosity,"298.15 K, m1 = 0.3161",1.025 ± 0.21 mPa·s
same,viscosity,"298.15 K, m1 = 0.4813",1.126 ± 0.23 mPa·s
same,viscosity,"298.15 K, m1 = 0.6261",1.215 ± 0.24 mPa·s
same,viscosity,"298.15 K, m1 = 0.7501",1.291 ± 0.26 mPa·s
same,viscosity,"298.15 K, m1 = 0.8501",1.352 ± 0.27 mPa·s
same,viscosity,"298.15 K, m1 = 0.959",1.419 ± 0.28 mPa·s
same,viscosity,"303.15 K, m1 = 0.01669",0.806 ± 0.16 mPa·s
same,viscosity,"303.15 K, m1 = 0.03487",0.8146 ± 0.16 mPa·s
same,viscosity,"303.15 K, m1 = 0.05412",0.8238 ± 0.16 mPa·s
same,viscosity,"303.15 K, m1 = 0.06194",0.8275 ± 0.17 mPa·s
same,viscosity,"303.15 K, m1 = 0.08565",0.8387 ± 0.17 mPa·s
same,viscosity,"303.15 K, m1 = 0.162",0.8749 ± 0.18 mPa·s
same,viscosity,"303.15 K, m1 = 0.255",0.9189 ± 0.18 mPa·s
same,viscosity,"303.15 K, m1 = 0.3161",0.9479 ± 0.19 mPa·s
same,viscosity,"303.15 K, m1 = 0.4813",1.026 ± 0.21 mPa·s
same,viscosity,"303.15 K, m1 = 0.6261",1.095 ± 0.22 mPa·s
same,viscosity,"303.15 K, m1 = 0.7501",1.154 ± 0.23 mPa·s
same,viscosity,"303.15 K, m1 = 0.8501",1.201 ± 0.24 mPa·s
same,viscosity,"303.15 K, m1 = 0.959",1.253 ± 0.25 mPa·s
same,viscosity,"308.15 K, m1 = 0.01669",0.7281 ± 0.15 mPa·s
same,viscosity,"308.15 K, m1 = 0.03487",0.7367 ± 0.15 mPa·s
same,viscosity,"308.15 K, m1 = 0.05412",0.7459 ± 0.15 mPa·s
same,viscosity,"308.15 K, m1 = 0.06194",0.7496 ± 0.15 mPa·s
same,viscosity,"308.15 K, m1 = 0.08565",0.7608 ± 0.15 mPa·s
same,viscosity,"308.15 K, m1 = 0.162",0.797 ± 0.16 mPa·s
same,viscosity,"308.15 K, m1 = 0.255",0.841 ± 0.17 mPa·s
same,viscosity,"308.15 K, m1 = 0.3161",0.87 ± 0.17 mPa·s
same,viscosity,"308.15 K, m1 = 0.4813",0.9483 ± 0.19 mPa·s
same,viscosity,"308.15 K, m1 = 0.6261",1.017 ± 0.2 mPa·s
same,viscosity,"308.15 K, m1 = 0.7501",1.076 ± 0.22 mPa·s
same,viscosity,"308.15 K, m1 = 0.8501",1.123 ± 0.23 mPa·s
same,viscosity,"308.15 K, m1 = 0.959",1.175 ± 0.24 mPa·s
O=P([O-])([O-])O.[K+].[K+] [dipotassium hydrogen phosphate] + O,viscosity,"288.15 K, m1 = 0.01682",1.05 ± 0.21 mPa·s
same,viscosity,"288.15 K, m1 = 0.03476",1.058 ± 0.21 mPa·s
same,viscosity,"288.15 K, m1 = 0.05442",1.066 ± 0.21 mPa·s
same,viscosity,"288.15 K, m1 = 0.06215",1.069 ± 0.21 mPa·s
same,viscosity,"288.15 K, m1 = 0.08596",1.079 ± 0.22 mPa·s
same,viscosity,"288.15 K, m1 = 0.1633",1.112 ± 0.22 mPa·s
same,viscosity,"288.15 K, m1 = 0.2499",1.149 ± 0.23 mPa·s
same,viscosity,"288.15 K, m1 = 0.3088",1.174 ± 0.23 mPa·s
same,viscosity,"288.15 K, m1 = 0.4795",1.246 ± 0.25 mPa·s
same,viscosity,"288.15 K, m1 = 0.628",1.309 ± 0.26 mPa·s
same,viscosity,"288.15 K, m1 = 0.7511",1.361 ± 0.27 mPa·s
same,viscosity,"288.15 K, m1 = 0.8468",1.401 ± 0.28 mPa·s
same,viscosity,"288.15 K, m1 = 0.9565",1.448 ± 0.29 mPa·s
same,viscosity,"293.15 K, m1 = 0.01682",0.9382 ± 0.19 mPa·s
same,viscosity,"293.15 K, m1 = 0.03476",0.9456 ± 0.19 mPa·s
same,viscosity,"293.15 K, m1 = 0.05442",0.9538 ± 0.19 mPa·s
same,viscosity,"293.15 K, m1 = 0.06215",0.957 ± 0.19 mPa·s
same,viscosity,"293.15 K, m1 = 0.08596",0.9669 ± 0.19 mPa·s
same,viscosity,"293.15 K, m1 = 0.1633",0.9989 ± 0.2 mPa·s
same,viscosity,"293.15 K, m1 = 0.2499",1.035 ± 0.21 mPa·s
same,viscosity,"293.15 K, m1 = 0.3088",1.059 ± 0.21 mPa·s
same,viscosity,"293.15 K, m1 = 0.4795",1.13 ± 0.23 mPa·s
same,viscosity,"293.15 K, m1 = 0.628",1.192 ± 0.24 mPa·s
same,viscosity,"293.15 K, m1 = 0.7511",1.243 ± 0.25 mPa·s
same,viscosity,"293.15 K, m1 = 0.8468",1.283 ± 0.26 mPa·s
same,viscosity,"293.15 K, m1 = 0.9565",1.328 ± 0.27 mPa·s
same,viscosity,"298.15 K, m1 = 0.01682",0.8385 ± 0.17 mPa·s
same,viscosity,"298.15 K, m1 = 0.03476",0.8455 ± 0.17 mPa·s
same,viscosity,"298.15 K, m1 = 0.05442",0.8532 ± 0.17 mPa·s
same,viscosity,"298.15 K, m1 = 0.06215",0.8562 ± 0.17 mPa·s
same,viscosity,"298.15 K, m1 = 0.08596",0.8655 ± 0.17 mPa·s
same,viscosity,"298.15 K, m1 = 0.1633",0.8957 ± 0.18 mPa·s
same,viscosity,"298.15 K, m1 = 0.2499",0.9296 ± 0.19 mPa·s
same,viscosity,"298.15 K, m1 = 0.3088",0.9526 ± 0.19 mPa·s
same,viscosity,"298.15 K, m1 = 0.4795",1.019 ± 0.2 mPa·s
same,viscosity,"298.15 K, m1 = 0.628",1.077 ± 0.22 mPa·s
same,viscosity,"298.15 K, m1 = 0.7511",1.126 ± 0.23 mPa·s
same,viscosity,"298.15 K, m1 = 0.8468",1.163 ± 0.23 mPa·s
same,viscosity,"298.15 K, m1 = 0.9565",1.206 ± 0.24 mPa·s
same,viscosity,"303.15 K, m1 = 0.01682",0.804 ± 0.16 mPa·s
same,viscosity,"303.15 K, m1 = 0.03476",0.8103 ± 0.16 mPa·s
same,viscosity,"303.15 K, m1 = 0.05442",0.8173 ± 0.16 mPa·s
same,viscosity,"303.15 K, m1 = 0.06215",0.82 ± 0.16 mPa·s
same,viscosity,"303.15 K, m1 = 0.08596",0.8284 ± 0.17 mPa·s
same,viscosity,"303.15 K, m1 = 0.1633",0.8556 ± 0.17 mPa·s
same,viscosity,"303.15 K, m1 = 0.2499",0.8861 ± 0.18 mPa·s
same,viscosity,"303.15 K, m1 = 0.3088",0.9068 ± 0.18 mPa·s
same,viscosity,"303.15 K, m1 = 0.4795",0.9669 ± 0.19 mPa·s
same,viscosity,"303.15 K, m1 = 0.628",1.019 ± 0.2 mPa·s
same,viscosity,"303.15 K, m1 = 0.7511",1.062 ± 0.21 mPa·s
same,viscosity,"303.15 K, m1 = 0.8468",1.096 ± 0.22 mPa·s
same,viscosity,"303.15 K, m1 = 0.9565",1.135 ± 0.23 mPa·s
same,viscosity,"308.15 K, m1 = 0.01682",0.7261 ± 0.15 mPa·s
same,viscosity,"308.15 K, m1 = 0.03476",0.7324 ± 0.15 mPa·s
same,viscosity,"308.15 K, m1 = 0.05442",0.7394 ± 0.15 mPa·s
same,viscosity,"308.15 K, m1 = 0.06215",0.7421 ± 0.15 mPa·s
same,viscosity,"308.15 K, m1 = 0.08596",0.7505 ± 0.15 mPa·s
same,viscosity,"308.15 K, m1 = 0.1633",0.7777 ± 0.16 mPa·s
same,viscosity,"308.15 K, m1 = 0.2499",0.8082 ± 0.16 mPa·s
same,viscosity,"308.15 K, m1 = 0.3088",0.8289 ± 0.17 mPa·s
same,viscosity,"308.15 K, m1 = 0.4795",0.889 ± 0.18 mPa·s
same,viscosity,"308.15 K, m1 = 0.628",0.9412 ± 0.19 mPa·s
same,viscosity,"308.15 K, m1 = 0.7511",0.9846 ± 0.2 mPa·s
same,viscosity,"308.15 K, m1 = 0.8468",1.018 ± 0.2 mPa·s
same,viscosity,"308.15 K, m1 = 0.9565",1.057 ± 0.21 mPa·s

# Reference: the NIST ThermoML archive (doi:10.1016/j.jct.2015.10.017)
